# Assay results as given in PubChem BioAssay (NCI).
#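 Five compound concentrations were applied to cells in 96-well plates for 48 hours; endpoints were derived by simple linear interpolation of the resulting dose-response curve. TGI denotes the concentration required for complete inhibition of growth.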
# Legend:
# Test in all cases: NCI-60 cell line screen, 48 h
# OVCAR-8 ovarian = test system: OVCAR-8 ovarian
# OVCAR-5 ovarian = test system: OVCAR-5 ovarian
# UO-31 renal = test system: UO-31 renal
# SNB-19 CNS = test system: SNB-19 CNS
# MALME-3M melanoma = test system: MALME-3M melanoma
# MDA-MB-435 = test system: MDA-MB-435
# U251 CNS = test system: U251 CNS
# A498 renal = test system: A498 renal
# NCI-H522 lung = test system: NCI-H522 lung
# BT-549 breast = test system: BT-549 breast
# LOX IMVI melanoma = test system: LOX IMVI melanoma
# PC-3 prostate = test system: PC-3 prostate
# HL-60(TB) leukemia = test system: HL-60(TB) leukemia
# SK-MEL-2 melanoma = test system: SK-MEL-2 melanoma
# TK-10 renal = test system: TK-10 renal
# HCC-2998 colon = test system: HCC-2998 colon
# SW-620 colon = test system: SW-620 colon
# SF-295 CNS = test system: SF-295 CNS
# RPMI-8226 leukemia = test system: RPMI-8226 leukemia
# IGROV1 ovarian = test system: IGROV1 ovarian
# SR leukemia = test system: SR leukemia
# MCF7 breast = test system: MCF7 breast
# 786-0 renal = test system: 786-0 renal
# T-47D breast = test system: T-47D breast
# HCT-15 colon = test system: HCT-15 colon
# NCI-H23 lung = test system: NCI-H23 lung
# NCI/ADR-RES ovarian = test system: NCI/ADR-RES ovarian
# KM12 colon = test system: KM12 colon
# HCT-116 colon = test system: HCT-116 colon
# SN12C renal = test system: SN12C renal
# K-562 leukemia = test system: K-562 leukemia
# UACC-62 melanoma = test system: UACC-62 melanoma
# MDA-N = test system: MDA-N
# A549 NSCLC = test system: A549 NSCLC
# OVCAR-3 ovarian = test system: OVCAR-3 ovarian
# EKVX NSCLC = test system: EKVX NSCLC
# UACC-257 melanoma = test system: UACC-257 melanoma
# SF-539 CNS = test system: SF-539 CNS
# MDA-MB-231 breast = test system: MDA-MB-231 breast
# SK-MEL-5 melanoma = test system: SK-MEL-5 melanoma
# NCI-H460 lung = test system: NCI-H460 lung
# HOP-62 NSCLC = test system: HOP-62 NSCLC
# COLO 205 colon = test system: COLO 205 colon
# MOLT-4 leukemia = test system: MOLT-4 leukemia
# ACHN renal = test system: ACHN renal
# HT29 colon = test system: HT29 colon
# HS 578T breast = test system: HS 578T breast
# SK-MEL-28 melanoma = test system: SK-MEL-28 melanoma
# SK-OV-3 ovarian = test system: SK-OV-3 ovarian
# HOP-92 NSCLC = test system: HOP-92 NSCLC
# SF-268 CNS = test system: SF-268 CNS
# SNB-75 CNS = test system: SNB-75 CNS
# RXF 393 renal = test system: RXF 393 renal
# CAKI-1 renal = test system: CAKI-1 renal
# CCRF-CEM leukemia = test system: CCRF-CEM leukemia
# OVCAR-4 ovarian = test system: OVCAR-4 ovarian
# M14 melanoma = test system: M14 melanoma
# NCI-H226 lung = test system: NCI-H226 lung
# DU-145 prostate = test system: DU-145 prostate
structure (smiles),measurement,setting,value
O=C1c2ccccc2C(=O)c2c(NC(=O)C3CC3)ccc(NC(=O)C3CC3)c21,TGI,OVCAR-8 ovarian,> 100 µM
same,TGI,OVCAR-5 ovarian,> 100 µM
same,TGI,UO-31 renal,> 100 µM
same,TGI,SNB-19 CNS,> 100 µM
same,TGI,MALME-3M melanoma,> 100 µM
same,TGI,MDA-MB-435,> 100 µM
same,TGI,U251 CNS,> 100 µM
same,TGI,A498 renal,> 100 µM
same,TGI,NCI-H522 lung,> 100 µM
same,TGI,BT-549 breast,> 100 µM
same,TGI,LOX IMVI melanoma,> 100 µM
same,TGI,PC-3 prostate,> 100 µM
same,TGI,HL-60(TB) leukemia,> 100 µM
same,TGI,SK-MEL-2 melanoma,> 100 µM
same,TGI,TK-10 renal,> 100 µM
same,TGI,HCC-2998 colon,> 100 µM
same,TGI,SW-620 colon,> 100 µM
same,TGI,SF-295 CNS,> 100 µM
same,TGI,RPMI-8226 leukemia,> 100 µM
same,TGI,IGROV1 ovarian,> 100 µM
same,TGI,SR leukemia,> 100 µM
same,TGI,MCF7 breast,> 100 µM
same,TGI,786-0 renal,> 100 µM
same,TGI,T-47D breast,> 100 µM
same,TGI,HCT-15 colon,> 100 µM
same,TGI,NCI-H23 lung,> 100 µM
same,TGI,NCI/ADR-RES ovarian,> 100 µM
same,TGI,KM12 colon,> 100 µM
same,TGI,HCT-116 colon,> 100 µM
same,TGI,SN12C renal,> 100 µM
same,TGI,K-562 leukemia,> 100 µM
same,TGI,UACC-62 melanoma,> 100 µM
same,TGI,MDA-N,> 100 µM
same,TGI,A549 NSCLC,> 100 µM
same,TGI,OVCAR-3 ovarian,> 100 µM
same,TGI,EKVX NSCLC,> 100 µM
same,TGI,UACC-257 melanoma,> 100 µM
same,TGI,SF-539 CNS,> 100 µM
same,TGI,MDA-MB-231 breast,> 100 µM
same,TGI,SK-MEL-5 melanoma,> 100 µM
same,TGI,NCI-H460 lung,> 100 µM
same,TGI,HOP-62 NSCLC,> 100 µM
same,TGI,COLO 205 colon,> 100 µM
same,TGI,MOLT-4 leukemia,> 100 µM
same,TGI,ACHN renal,> 100 µM
same,TGI,HT29 colon,> 100 µM
same,TGI,HS 578T breast,> 100 µM
same,TGI,SK-MEL-28 melanoma,> 100 µM
C/C(=N\Nc1nc2ccccc2[nH]1)c1cnccn1,TGI,OVCAR-8 ovarian,> 93.3 µM
same,TGI,OVCAR-5 ovarian,> 100 µM
same,TGI,UO-31 renal,> 27.2 µM
same,TGI,SNB-19 CNS,> 100 µM
same,TGI,MALME-3M melanoma,> 25.6 µM
same,TGI,MDA-MB-435,> 29.6 µM
same,TGI,SK-OV-3 ovarian,> 100 µM
same,TGI,U251 CNS,> 59.5 µM
same,TGI,HOP-92 NSCLC,2.38 µM
same,TGI,A498 renal,7.75 µM
same,TGI,BT-549 breast,> 85.3 µM
same,TGI,SF-268 CNS,> 100 µM
same,TGI,LOX IMVI melanoma,> 30.5 µM
same,TGI,PC-3 prostate,> 88.4 µM
same,TGI,HL-60(TB) leukemia,0.429 µM
same,TGI,SK-MEL-2 melanoma,26 µM
same,TGI,TK-10 renal,> 66.5 µM
same,TGI,HCC-2998 colon,59.8 µM
same,TGI,SW-620 colon,> 66 µM
same,TGI,SF-295 CNS,> 76.5 µM
same,TGI,IGROV1 ovarian,> 38.4 µM
same,TGI,MCF7 breast,> 66.8 µM
same,TGI,786-0 renal,> 100 µM
same,TGI,SNB-75 CNS,> 53.9 µM
same,TGI,T-47D breast,> 68.4 µM
same,TGI,HCT-15 colon,> 100 µM
same,TGI,NCI-H23 lung,> 30.7 µM
same,TGI,RXF 393 renal,4.81 µM
same,TGI,NCI/ADR-RES ovarian,21.3 µM
same,TGI,KM12 colon,22.4 µM
same,TGI,HCT-116 colon,> 38 µM
same,TGI,SN12C renal,12.4 µM
same,TGI,K-562 leukemia,> 100 µM
same,TGI,UACC-62 melanoma,> 22.3 µM
same,TGI,MDA-N,> 100 µM
same,TGI,A549 NSCLC,> 40.5 µM
same,TGI,OVCAR-3 ovarian,> 100 µM
same,TGI,EKVX NSCLC,> 34.4 µM
same,TGI,CAKI-1 renal,14.9 µM
same,TGI,UACC-257 melanoma,> 31 µM
same,TGI,MDA-MB-231 breast,> 57.8 µM
same,TGI,SK-MEL-5 melanoma,13.2 µM
same,TGI,NCI-H460 lung,> 100 µM
same,TGI,HOP-62 NSCLC,> 100 µM
same,TGI,COLO 205 colon,> 40.2 µM
same,TGI,MOLT-4 leukemia,> 100 µM
same,TGI,CCRF-CEM leukemia,6.75 µM
same,TGI,OVCAR-4 ovarian,> 100 µM
same,TGI,M14 melanoma,4.66 µM
same,TGI,HT29 colon,> 48 µM
same,TGI,HS 578T breast,> 100 µM
C1CSCCSCSCCS1,TGI,OVCAR-8 ovarian,> 100 µM
same,TGI,OVCAR-5 ovarian,> 100 µM
same,TGI,UO-31 renal,> 100 µM
same,TGI,SNB-19 CNS,> 100 µM
same,TGI,MDA-MB-435,> 100 µM
same,TGI,SK-OV-3 ovarian,> 100 µM
same,TGI,U251 CNS,> 100 µM
same,TGI,NCI-H226 lung,> 100 µM
same,TGI,HOP-92 NSCLC,> 100 µM
same,TGI,A498 renal,> 100 µM
same,TGI,NCI-H522 lung,> 100 µM
same,TGI,BT-549 breast,> 100 µM
same,TGI,SF-268 CNS,> 100 µM
same,TGI,LOX IMVI melanoma,> 100 µM
same,TGI,PC-3 prostate,> 100 µM
same,TGI,SK-MEL-2 melanoma,> 100 µM
same,TGI,TK-10 renal,> 100 µM
same,TGI,HCC-2998 colon,> 100 µM
same,TGI,SW-620 colon,> 100 µM
same,TGI,SF-295 CNS,> 100 µM
same,TGI,IGROV1 ovarian,> 100 µM
same,TGI,MCF7 breast,> 100 µM
same,TGI,SNB-75 CNS,> 100 µM
same,TGI,T-47D breast,> 100 µM
same,TGI,HCT-15 colon,> 100 µM
same,TGI,DU-145 prostate,> 100 µM
same,TGI,NCI-H23 lung,> 100 µM
same,TGI,RXF 393 renal,> 100 µM
same,TGI,NCI/ADR-RES ovarian,> 100 µM
same,TGI,KM12 colon,> 100 µM
same,TGI,HCT-116 colon,> 100 µM
same,TGI,SN12C renal,> 100 µM
same,TGI,UACC-62 melanoma,> 100 µM
same,TGI,MDA-N,> 100 µM
same,TGI,A549 NSCLC,> 100 µM
same,TGI,OVCAR-3 ovarian,> 100 µM
same,TGI,EKVX NSCLC,> 100 µM
same,TGI,CAKI-1 renal,> 100 µM
same,TGI,UACC-257 melanoma,> 100 µM
same,TGI,SF-539 CNS,> 100 µM
same,TGI,MDA-MB-231 breast,> 100 µM
same,TGI,SK-MEL-5 melanoma,> 100 µM
same,TGI,NCI-H460 lung,> 100 µM
same,TGI,HOP-62 NSCLC,> 100 µM
same,TGI,COLO 205 colon,> 100 µM
same,TGI,OVCAR-4 ovarian,> 100 µM
same,TGI,M14 melanoma,> 100 µM
same,TGI,ACHN renal,> 100 µM
same,TGI,HT29 colon,> 100 µM
same,TGI,HS 578T breast,> 100 µM
same,TGI,SK-MEL-28 melanoma,> 100 µM
COc1ccc(N2C(=O)/C(=C\c3ccccc3)SC2c2cc(OC)c(OC)c(OC)c2)cc1 (stereo not given),TGI,OVCAR-8 ovarian,> 100 µM
same,TGI,OVCAR-5 ovarian,> 100 µM
same,TGI,UO-31 renal,> 100 µM
same,TGI,SNB-19 CNS,> 100 µM
same,TGI,MALME-3M melanoma,> 100 µM
same,TGI,MDA-MB-435,79.7 µM
same,TGI,SK-OV-3 ovarian,> 100 µM
same,TGI,U251 CNS,> 100 µM
same,TGI,NCI-H226 lung,> 100 µM
same,TGI,HOP-92 NSCLC,> 100 µM
same,TGI,A498 renal,> 100 µM
same,TGI,NCI-H522 lung,> 100 µM
same,TGI,BT-549 breast,> 100 µM
same,TGI,SF-268 CNS,> 100 µM
same,TGI,LOX IMVI melanoma,> 100 µM
same,TGI,PC-3 prostate,> 100 µM
same,TGI,SK-MEL-2 melanoma,75.9 µM
same,TGI,TK-10 renal,> 100 µM
same,TGI,HCC-2998 colon,> 100 µM
same,TGI,SF-295 CNS,> 100 µM
same,TGI,SR leukemia,> 100 µM
same,TGI,MCF7 breast,> 100 µM
same,TGI,SNB-75 CNS,75.7 µM
same,TGI,T-47D breast,> 100 µM
same,TGI,HCT-15 colon,> 100 µM
same,TGI,NCI-H23 lung,> 100 µM
same,TGI,RXF 393 renal,> 100 µM
same,TGI,NCI/ADR-RES ovarian,> 100 µM
same,TGI,KM12 colon,> 100 µM
same,TGI,HCT-116 colon,> 100 µM
same,TGI,SN12C renal,> 100 µM
same,TGI,K-562 leukemia,> 100 µM
same,TGI,UACC-62 melanoma,> 100 µM
same,TGI,MDA-N,44.8 µM
same,TGI,A549 NSCLC,> 100 µM
same,TGI,EKVX NSCLC,> 100 µM
same,TGI,CAKI-1 renal,> 100 µM
same,TGI,UACC-257 melanoma,> 100 µM
same,TGI,MDA-MB-231 breast,> 100 µM
same,TGI,SK-MEL-5 melanoma,> 100 µM
same,TGI,HOP-62 NSCLC,> 100 µM
same,TGI,COLO 205 colon,> 100 µM
same,TGI,MOLT-4 leukemia,> 100 µM
same,TGI,CCRF-CEM leukemia,> 100 µM
same,TGI,OVCAR-4 ovarian,> 100 µM
same,TGI,M14 melanoma,> 100 µM
same,TGI,ACHN renal,> 100 µM
same,TGI,HT29 colon,> 100 µM
same,TGI,HS 578T breast,> 100 µM
same,TGI,SK-MEL-28 melanoma,> 100 µM
